# According to PubChem BioAssay (NCI):
# Where “and” joins values, the source holds several entries; their conditions need not be identical. Equal entries are not always repeated.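 Where inhibition never reached the appropriate level, the endpoint shown equals the highest concentration tested. Otherwise, values were interpolated linearly from a five-concentration, 48-hour dose response in 96-well plates. Abbreviation: GI50, concentration required for 50% inhibition of growth. Definition used: TGI = concentration required for complete inhibition of growth.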
# Experiments:
# Experiment in all cases: NCI tumour cell line growth inhibition, 48 h
# A498 renal = tested on: A498 renal
# HOP-92 NSCLC = tested on: HOP-92 NSCLC
# MOLT-4 leukemia = tested on: MOLT-4 leukemia
# PC-3 prostate = tested on: PC-3 prostate
# MALME-3M melanoma = tested on: MALME-3M melanoma
# SK-MEL-5 melanoma = tested on: SK-MEL-5 melanoma
# SF-539 CNS = tested on: SF-539 CNS
# SF-268 CNS = tested on: SF-268 CNS
SMILES,GI50 (A498 renal) [µM],TGI (A498 renal),GI50 (HOP-92 NSCLC) [µM],TGI (HOP-92 NSCLC),GI50 (MOLT-4 leukemia) [µM],TGI (MOLT-4 leukemia),GI50 (PC-3 prostate) [µM],TGI (PC-3 prostate),GI50 (MALME-3M melanoma) [µM],TGI (MALME-3M melanoma),GI50 (SK-MEL-5 melanoma) [µM],TGI (SK-MEL-5 melanoma),GI50 (SF-539 CNS) [µM],TGI (SF-539 CNS),GI50 (SF-268 CNS) [µM],TGI (SF-268 CNS)
Cc1ccc(C=C2C(Cl)=C(Cl)C(Cl)=C2Cl)cc1,1.43,2.91 µM,1.33,4.35 µM,0.186,0.493 µM,0.743,6.3 µM,0.933,2.62 µM,1.09,2.41 µM,1.45,2.81 µM,0.617,2.28 µM
CCCCNS(=O)(=O)c1n[nH]c(=O)[nH]c1=O,–,> 100 µM,–,–,–,> 100 µM,–,> 100 µM,–,> 100 µM,–,> 100 µM,–,> 100 µM,–,> 100 µM
NC(=S)N/N=C1\c2ccccc2-c2c(F)c(F)c(F)c(F)c21,16.5,55.7 µM,6.33,19.9 µM,1.8,5.31 µM,10.1,28.3 µM,7.54,21.1 µM,17.1,> 50.4 µM,5.39,12.8 µM,5.26,12.5 µM
N#Cc1c(NC(=O)c2ccc(F)cc2)sc2c1CCCC2,> 25,> 25 µM,> 25,> 25 µM,> 25,> 25 µM,> 25,> 25 µM,> 25,> 25 µM,> 25,> 25 µM,> 25,> 25 µM,> 25,> 25 µM
O=C(c1ccc(C(F)(F)F)c(Cl)c1)N(Cc1ccc(Cl)cc1)c1ccc(-c2cc(C(F)(F)F)[nH]n2)c(O)c1,1.04,2.66 µM,0.629,2.14 µM,1.32,5.09 µM,0.897,2.91 µM,0.941,2.36 µM,0.816,1.55 µM,0.994,2.09 µM,1.32,5.19 µM
COc1ccc(NC2=C(I)C(=O)c3ncccc3C2=O)cc1,1.74,3.28 µM,1.48,3.78 µM,2.06,5.79 µM,0.972,7.99 µM,1.19,2.44 µM,0.347,1.42 µM,1.41,2.75 µM,1.28,4.23 µM
COc1cc(N2C(=O)[C@H](c3ccccc3)C2c2ccc(SC)cc2)cc(OC)c1OC (stereo partly specified),0.0232,0.078 µM,0.031,16.5 µM,0.04,> 100 µM,0.0428,> 100 µM,> 100,> 100 µM,0.0266,0.0821 µM,0.0255,0.0697 µM,0.0485,> 100 µM
C=CC(=O)N1C[C@@H]2CCOc3c(Cl)c(-c4c(O)cccc4F)c(F)c4ncnc(c34)N2C[C@H]1C,13.6,28.1 µM,17,39 µM,5.79,> 100 µM,17.9,> 100 µM,10.8,23.8 µM,13.1,25.9 µM,12.9,25.8 µM,12.5,29.1 µM
Clc1cc(Cl)c(OCCCCCCN2CCNCC2)c(Cl)c1,9.35,22.6 µM,2.32,7.64 µM,2.04,4.88 µM,1.8,4.03 µM,2.19,5.06 µM,1.66,3.06 µM,2.27,5.71 µM,5.85,21.1 µM
COCCOC1=CC(=O)c2c(O)ccc(O)c2C1=O,2.16,3.18 µM and 3.92 µM,1.54,3.7 µM and 3.59 µM,1.44,8.03 µM and 3.53 µM,2.67,4.77 µM and 8.28 µM,0.808,0.328 µM and 2.07 µM,–,0.3 µM and 0.295 µM,–,3.12 µM and 3.16 µM,3.29,3.54 µM and 10.9 µM
C=C1C(=O)O[C@H]2[C@H](OC(C)=O)[C@@H](C)CCCC3(C)OC3CCC3(CO3)[C@H](O)C[C@@H]12 (stereo partly specified),–,–,–,–,1.73,4.14 µM,4.4,18 µM,6.01,21.6 µM,11.9,24.9 µM,15.4,37.1 µM,15.2,40.4 µM
O=c1cnnc(N/N=C/c2ccccc2O)[nH]1,1.81,23.3 µM,4.75,> 100 µM,0.973,> 100 µM,2.99,> 100 µM,0.426,47.5 µM,1.25,> 39.6 µM,3.2,> 100 µM,3.45,> 87.3 µM
O=C(O)c1cc(=O)cc(C(=O)O)o1,> 100,> 100 µM,> 100,> 100 µM,> 100,> 100 µM,> 100,> 100 µM,> 100,> 100 µM,> 100,> 100 µM,> 100,> 100 µM,> 100,> 100 µM
N#CC(C#N)=C1CCOc2ccc(F)cc21,23,49.9 µM,2.05,15.9 µM,16.2,29.7 µM,13.9,26.8 µM,–,–,33.2,> 100 µM,12.4,24.9 µM,14.6,48.4 µM
COc1cc(CNCCN2C(=O)c3ccc4c5c(ccc(c35)C2=O)C(=O)N(CCNCc2cc(OC)c(OC)c(OC)c2)C4=O)cc(OC)c1OC,–,–,–,–,–,–,–,–,–,–,–,–,0.4,1.11 µM,0.786,2.37 µM
O=C(O)c1ccc(C(O)(c2ccccc2)c2ccccc2)cc1,–,–,–,–,–,> 100 µM,–,> 100 µM,–,> 100 µM,–,> 100 µM,–,–,–,> 100 µM
